# Read-outs that look alike come from different tables or passages of the source.
# Biological target: human cannabinoid CB2 receptor (Homo sapiens, UniProt P34972)
# Test: Cannabinoid CB2 receptor agonist activity (yeast reporter assay, FDGlu fluorescence)
# Format: cell-based
# Conditions: for Emax: read-out: efficacy value (Emax relative to HU210) at the cloned human cannabinoid CB2 receptor
# Summary of the method: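 S. cerevisiae MMY23 expressing human CB2 with a Gpa1/Gαi3 chimeric G-protein, grown 24 h at 30 °C with agonist (1% DMSO) in selective media containing 10 mM 3-aminotriazole and FDGlu, pH 7.0. Fluorescein fluorescence (485/535 nm) fitted by four-parameter curve; Emax and EMR relative to HU210.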
# [1] = EC50 value at the cloned human cannabinoid CB2 receptor
# Chain of human cannabinoid CB2 receptor (P34972 whole entry): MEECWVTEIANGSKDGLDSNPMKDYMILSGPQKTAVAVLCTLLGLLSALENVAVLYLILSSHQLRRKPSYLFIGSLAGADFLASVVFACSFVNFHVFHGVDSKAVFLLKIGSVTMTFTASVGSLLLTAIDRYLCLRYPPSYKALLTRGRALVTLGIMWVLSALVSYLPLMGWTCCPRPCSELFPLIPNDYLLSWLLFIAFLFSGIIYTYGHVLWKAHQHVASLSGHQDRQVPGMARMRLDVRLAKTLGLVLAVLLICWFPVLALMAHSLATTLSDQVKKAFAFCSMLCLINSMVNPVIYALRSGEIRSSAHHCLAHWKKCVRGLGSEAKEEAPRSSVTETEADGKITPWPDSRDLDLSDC
Compound,EC50 [1] [nM],Emax [%],EC50 (read-out: EC50 value at the cloned human cannabinoid CB2 receptor) [nM]
"O=C(NCC1CCC1)c1cnc(Nc2ccc(Cl)cc2Cl)nc1C(F)(F)F [Example 201, 2-(2,4-Dichlorophenylamino)-4-trifluoromethyl-pyrimidine-5-carboxylic acid cyclobutylmethyl-amide]",20 to 300,> 50,–
"O=C(NCC1CCC1)c1cnc(Nc2cc(Cl)ccc2Cl)nc1C(F)(F)F [Example 202, 2-(2,5-Dichlorophenylamino)-4-trifluoromethyl-pyrimidine-5-carboxylic acid cyclobutylmethyl-amide]",20 to 300,> 50,–
"O=C(NCC1CCC1)c1cnc(Nc2c(Cl)cccc2Cl)nc1C(F)(F)F [Example 203, 2-(2,6-Dichlorophenylamino)-4-trifluoromethyl-pyrimidine-5-carboxylic acid cyclobutylmethyl-amide]",20 to 300,> 50,–
"O=C(NCC1CCC1)c1cnc(Nc2ccc(Cl)c(Cl)c2)nc1C(F)(F)F [Example 204, 2-(3,4-Dichlorophenylamino)-4-trifluoromethyl-pyrimidine-5-carboxylic acid cyclobutylmethyl-amide]",20 to 300,> 50,–
"COc1cccc(Nc2ncc(C(=O)NCC3CCC3)c(C(F)(F)F)n2)c1 [Example 205, 2-(3-Methoxyphenylamino)-4-trifluoromethyl-pyrimidine-5-carboxylic acid cyclobutylmethyl-amide]",20 to 300,> 50,–
"O=C(NCC1CCC1)c1cnc(Nc2cc(Cl)cc(Cl)c2)nc1C(F)(F)F [Example 206, 2-(3,5-Dichlorophenylamino)-4-trifluoromethyl-pyrimidine-5-carboxylic acid cyclobutylmethyl-amide]",20 to 300,> 50,–
"O=C(NC1CCCC1)c1cnc(Nc2cccc(Br)c2)nc1C(F)(F)F [Example 207, 2-(3-Bromophenylamino)-4-trifluoromethyl-pyrimidine-5-carboxylic acid cyclopentylamide]",20 to 300,> 50,–
"O=C(NC1CCCC1)c1cnc(Nc2ccc(Cl)cc2Cl)nc1C(F)(F)F [Example 208, 2-(2,4-Dichlorophenylamino)-4-trifluoromethyl-pyrimidine-5-carboxylic acid cyclopentylamide]",20 to 300,> 50,–
"O=C(NC1CC1)c1cnc(Nc2cccc(Cl)c2)nc1C(F)(F)F [Example 209, 2-(3-Chlorophenylamino)-4-trifluoromethyl-pyrimidine-5-carboxylic acid cyclopropylamide]",20 to 300,> 50,–
"CN(CC1CCOCC1)C(=O)c1cnc(Nc2cccc(Cl)c2)nc1C(F)(F)F [Example 211, 2-(3-Chlorophenylamino)-4-trifluoromethyl-pyrimidine-5-carboxylic acid methyl-(tetrahydro-pyran-4-ylmethyl)-amide]",20 to 300,> 50,–
"O=C(NCC1CCOCC1)c1cnc(Nc2cccc(Cl)c2F)nc1C(F)(F)F [Example 212, 2-(2-Fluoro-3-chloro-phenylamino)-4-trifluoromethyl-pyrimidine-5-carboxylic acid (tetrahydro-pyran-4-ylmethyl)-amide]",–,–,20 to 300
"O=C(NCC1CCOCC1)c1cnc(Nc2cc(Cl)ccc2F)nc1C(F)(F)F [Example 213, 2-(2-Fluoro-5-chloro-phenylamino)-4-trifluoromethyl-pyrimidine-5-carboxylic acid (tetrahydro-pyran-4-ylmethyl)-amide]",20 to 300,> 50,–
"O=C(NCC1CCOCC1)c1cnc(Nc2cc(F)cc(F)c2)nc1C(F)(F)F [Example 214, 2-(3,5-Difluorophenylamino)-4-trifluoromethyl-pyrimidine-5-carboxylic acid (tetrahydro-pyran-4-ylmethyl)-amide]",20 to 300,> 50,–
"O=C(NCC1CCOCC1)c1cnc(Nc2ccc(F)c(Cl)c2)nc1C(F)(F)F [Example 215, 2-(4-Fluoro-3-chloro-phenylamino)-4-trifluoromethyl-pyrimidine-5-carboxylic acid (tetrahydro-pyran-4-ylmethyl)-amide]",20 to 300,> 50,–
"O=C(NCC1CCOCC1)c1cnc(Nc2ccc(OC(F)(F)F)c(Cl)c2)nc1C(F)(F)F [Example 216, 2-(4-Trifluoromethoxy-3-chloro-phenylamino)-4-trifluoromethyl-pyrimidine-5-carboxylic acid (tetrahydro-pyran-4-ylmethyl)-amide]",20 to 300,> 50,–
"O=C(NCC1CCOCC1)c1cnc(Nc2ccc(C(F)(F)F)c(F)c2)nc1C(F)(F)F [Example 218, 2-(4-Trifluoromethyl-3-fluoro-phenylamino)-4-trifluoromethyl-pyrimidine-5-carboxylic acid (tetrahydro-pyran-4-ylmethyl)-amide]",20 to 300,> 50,–

Compound,EC50 [1] [nM],Emax [%],EC50 (read-out: EC50 value at the cloned human cannabinoid CB2 receptor) [nM]
"N#Cc1ccc(Nc2ncc(C(=O)NCC3CCCC3)c(C(F)(F)F)n2)cc1Cl [Example 219, 2-(4-Cyano-3-chloro-phenylamino)-4-trifluoromethyl-pyrimidine-5-carboxylic acid cyclopentylmethyl-amide]",20 to 300,> 50,–
"O=C(NC1CCS(=O)(=O)CC1)c1cnc(Nc2ccc(Cl)cc2Cl)nc1C(F)(F)F [Example 220, 2-(2,4-Dichloro-phenylamino)-4-trifluoromethyl-pyrimidine-5-carboxylic acid (1,1-dioxo-hexahydro-1l^6-thiopyran-4-yl)-amide]",20 to 300,> 50,–
"O=C(NCC1CCCCC1)c1cnc(Nc2ccc(F)cc2F)nc1C(F)(F)F [Example 221, 2-(2,4-Difluoro-phenylamino)-4-trifluoromethyl-pyrimidine-5-carboxylic acid cyclohexylmethyl-amide]",20 to 300,> 50,–
"O=C(NCC1CCCCC1)c1cnc(Nc2ccc(F)cc2Cl)nc1C(F)(F)F [Example 222, 2-(2-Chloro-4-fluoro-phenylamino)-4-trifluoromethyl-pyrimidine-5-carboxylic acid cyclohexylmethyl-amide]",20 to 300,> 50,–
"O=C(NCC1CCC1)c1cnc(Nc2ccc(F)cc2F)nc1C(F)(F)F [Example 223, 2-(2,4-Difluoro-phenylamino)-4-trifluoromethyl-pyrimidine-5-carboxylic acid cyclobutylmethyl-amide]",20 to 300,> 50,–
"O=C(NCC1CCC1)c1cnc(Nc2ccc(F)cc2Cl)nc1C(F)(F)F [Example 224, 2-(2-Chloro-4-fluoro-phenylamino)-4-trifluoromethyl-pyrimidine-5-carboxylic acid cyclobutylmethyl-amide]",20 to 300,> 50,–
"O=C(NCC1CCCCC1)c1cnc(Nc2ccc(Br)cc2Cl)nc1C(F)(F)F [Example 225, 2-(2-Chloro-4-bromo-phenylamino)-4-trifluoromethyl-pyrimidine-5-carboxylic acid cyclohexylmethyl-amide]",20 to 300,> 50,–
"O=C(NCC1CCCCC1)c1cnc(Nc2ccc(Cl)cc2F)nc1C(F)(F)F [Example 226, 2-(2-Fluoro-4-chloro-phenylamino)-4-trifluoromethyl-pyrimidine-5-carboxylic acid cyclohexylmethyl-amide]",20 to 300,> 50,–
"O=C(NCC1CCC1)c1cnc(Nc2ccc(Br)cc2Cl)nc1C(F)(F)F [Example 227, 2-(2-Chloro-4-bromo-phenylamino)-4-trifluoromethyl-pyrimidine-5-carboxylic acid cyclobutylmethyl-amide]",20 to 300,> 50,–
"O=C(NCC1CCC1)c1cnc(Nc2ccc(Br)cc2F)nc1C(F)(F)F [Example 229, 2-(2-Fluoro-4-bromo-phenylamino)-4-trifluoromethyl-pyrimidine-5-carboxylic acid cyclobutylmethyl-amide]",20 to 300,> 50,–
"O=C(NCC1CCC1)c1cnc(Nc2ccc(Cl)cc2Br)nc1C(F)(F)F [Example 230, 2-(2-Bromo-4-chloro-phenylamino)-4-trifluoromethyl-pyrimidine-5-carboxylic acid cyclobutylmethyl-amide]",20 to 300,> 50,–
"O=C(NCC1CCCCC1)c1cnc(Nc2ccc(Br)cc2F)nc1C(F)(F)F [Example 231, 2-(2-Fluoro-4-bromo-phenylamino)-4-trifluoromethyl-pyrimidine-5-carboxylic acid cyclohexylmethyl-amide]",20 to 300,> 50,–
"O=C(NCC1CCOCC1)c1cnc(Nc2ccc(Br)cc2F)nc1C(F)(F)F [Example 232, 2-(2-Fluoro-4-bromo-phenylamino)-4-trifluoromethyl-pyrimidine-5-carboxylic acid (tetrahydro-pyran-4-ylmethyl)-amide]",20 to 300,> 50,–
"O=C(NCC1CCOCC1)c1cnc(Nc2ccc(F)cc2Cl)nc1C(F)(F)F [Example 233, 2-(2-Chloro-4-fluoro-phenylamino)-4-trifluoromethyl-pyrimidine-5-carboxylic acid (tetrahydro-pyran-4-ylmethyl)-amide]",20 to 300,> 50,–
"O=C(NCC1CCOCC1)c1cnc(Nc2ccc(Br)cc2Cl)nc1C(F)(F)F [Example 234, 2-(2-Chloro-4-bromo-phenylamino)-4-trifluoromethyl-pyrimidine-5-carboxylic acid (tetrahydro-pyran-4-ylmethyl)-amide]",20 to 300,> 50,–
"N#Cc1ccc(Nc2ncc(C(=O)NCC3CCOCC3)c(C(F)(F)F)n2)c(Cl)c1 [Example 235, 2-(2-Chloro-4-cyano-phenylamino)-4-trifluoromethyl-pyrimidine-5-carboxylic acid (tetrahydro-pyran-4-ylmethyl)-amide]",20 to 300,> 50,–

# Source: US20080132505A1 (Glaxo Group Limited, priority 2004, published 2008)
